biological target: human GPR17 short isoform (Homo sapiens, UniProt Q13304); assay: GPR17 cAMP assay (hGPR17 cAMP, TR-FRET, antagonist mode); type: cell-based; details: CHO-K1 cells stably expressing human GPR17 short isoform; EC80 of agonist MDL29,951; forskolin 15 μM; 30 min at room temperature
Method: CHO-K1 cells stably expressing vector containing untagged human GPR17 short isoform (Roche) were cultured at 37° C./5% CO2 in DMEM (Dulbecco's Modified Eagle Medium): F-12 (1:1) supplemented with 10% foetal bovine serum and 400 μg/ml Geneticin.
Changes in intracellular cyclic adenosine monophosphate (cAMP) levels were quantified using the Nano-TRF Detection Assay kit (Roche Diagnostics, Cat. No. 05214386001). This assay allows for direct cAMP quantification in a homogeneous solution. CAMP is detected based on time-resolved fluorescence energy transfer (TR-FRET) and competitive binding of ruthenylated cAMP and endogenous cAMP to an anti-cAMP monoclonal antibody labeled with AlexaFluor-700. The Ruthenium complex serves as the FRET donor and transfers energy to AlexaFluor-700. The FRET signal is inversely proportional to the CAMP concentration.
CHO-GPR17S cells were detached with Accutase and resuspended in assay buffer consisting of Hank's Balanced Salt Solution (HBSS), 10 mM HEPES (4-(2-hydroxyethyl) piperazine-1-ethanesulfonic acid solution) and 0.1% bovine serum albumin (pH 7.4). The cells were seeded in black 384-well plates (Corning) at a density of 10′000 cells/20 μl assay buffer until the addition of compounds.
Test antagonist compounds were serially diluted in dimethyl sulfoxide (DMSO) and spotted in 384-well plates. The compounds were then diluted in HBSS buffer supplemented with an EC80 concentration of MDL29,951 (3-(2-Carboxy-4,6-dichloroindol-3-yl) propionic acid) (GPR17 agonist) plus 3-Isobutyl-1-methylxanthine (IBMX) (0.5 mM final concentration) and added to the cells at room temperature. Forskolin (15 μM final concentration) was added 5 minutes after the test compounds and the cells were incubated at room temperature for 30 minutes. The assay was stopped by adding cAMP detection mix (containing detergents for cell lysis) for 90 minutes at room temperature.
Cellular cAMP was measured using a Paradigm reader (Molecular Devices). The raw data was used to calculate the FRET signal based on the assay's P-factor as per cAMP kit instructions. The data was normalized to the maximal activity of a reference antagonist and dose response curves were fitted to the percent activity of the test compounds using a sigmoidal dose response model (Genedata Screener).

human GPR17 short isoform, sequence (Q13304 29-367): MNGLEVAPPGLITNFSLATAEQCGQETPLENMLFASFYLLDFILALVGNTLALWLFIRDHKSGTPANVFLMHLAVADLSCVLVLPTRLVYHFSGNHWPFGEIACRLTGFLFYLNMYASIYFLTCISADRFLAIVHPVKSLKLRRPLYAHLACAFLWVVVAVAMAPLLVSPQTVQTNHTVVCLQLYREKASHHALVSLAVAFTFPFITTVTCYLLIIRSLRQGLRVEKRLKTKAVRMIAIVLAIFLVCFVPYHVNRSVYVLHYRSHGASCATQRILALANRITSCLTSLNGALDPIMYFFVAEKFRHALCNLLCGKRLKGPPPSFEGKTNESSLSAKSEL

SMILES | IC50 [µM]
COc1nc(NS(=O)(=O)c2cnc3nc(C4CC4)ccn23)c(F)cc1OCC(F)F [Example 49, 7-cyclopropyl-N-[5-(2,2-difluoroethoxy)-3-fluoro-6-methoxy-2-pyridyl]imidazo[1,2-a]pyrimidine-3-sulfonamide] | 0.089
COc1nc(OCC(F)F)c(F)cc1NS(=O)(=O)c1cnc2n1CCCC2C (centres unmarked) [Example 50, N-[6-(2,2-difluoroethoxy)-5-fluoro-2-methoxy-3-pyridyl]-8-methyl-5,6,7,8-tetrahydroimidazo[1,2-a]pyridine-3-sulfonamide] | 0.098
COc1nc(NS(=O)(=O)c2cnc3cc(Cl)ccn23)c(F)cc1OCC(F)F [Example 51, 7-chloro-N-[5-(2,2-difluoroethoxy)-3-fluoro-6-methoxy-2-pyridyl]imidazo[1,2-a]pyridine-3-sulfonamide] | 0.099
COc1nc(OCC(F)F)c(F)cc1NS(=O)(=O)c1cnc2n1CCC(C)O2 (centres unmarked) [Example 53, N-[6-(2,2-difluoroethoxy)-5-fluoro-2-methoxy-3-pyridyl]-7-methyl-6,7-dihydro-5H-imidazo[2,1-b][1,3]oxazine-3-sulfonamide] | 0.101
COc1nc(NS(=O)(=O)c2cnc3cc(C)ccn23)nc(OC)c1C [Example 54, N-(4,6-dimethoxy-5-methyl-pyrimidin-2-yl)-7-methyl-imidazo[1,2-a]pyridine-3-sulfonamide] | 0.112
O=S(=O)(Nc1cc(F)c(OC(F)F)nc1OC(F)F)c1cnc2nc(C3CC3)ccn12 [Example 56, N-[2,6-bis(difluoromethoxy)-5-fluoro-3-pyridyl]-7-cyclopropyl-imidazo[1,2-a]pyrimidine-3-sulfonamide] | 0.132
COc1nc(OCC(F)F)c(F)cc1NS(=O)(=O)c1cnc2c(=O)n(C)ccn12 [Example 58, N-[6-(2,2-difluoroethoxy)-5-fluoro-2-methoxy-3-pyridyl]-8-keto-7-methyl-imidazo[1,2-a]pyrazine-3-sulfonamide] | 0.174
COc1nc(OCC(F)F)c(F)cc1NS(=O)(=O)c1cnc2cc(C#N)ccn12 [Example 59, 7-cyano-N-[6-(2,2-difluoroethoxy)-5-fluoro-2-methoxy-3-pyridyl]imidazo[1,2-a]pyridine-3-sulfonamide] | 0.176
COc1ccn2c(S(=O)(=O)Nc3cc(F)c(OCC(F)F)nc3OC)cnc2c1C#N [Example 60, 8-cyano-N-[6-(2,2-difluoroethoxy)-5-fluoro-2-methoxy-3-pyridyl]-7-methoxy-imidazo[1,2-a]pyridine-3-sulfonamide] | 0.179
COc1nc(OCC(F)F)c(F)cc1NS(=O)(=O)c1cnc2n1CCC(OC)C2 (centres unmarked) [Example 62, N-[6-(2,2-difluoroethoxy)-5-fluoro-2-methoxy-3-pyridyl]-7-methoxy-5,6,7,8-tetrahydroimidazo[1,2-a]pyridine-3-sulfonamide] | 0.217
COc1nc(OCC(F)F)c(F)cc1NS(=O)(=O)c1cnc2n1CCCC2 [Example 63, N-[6-(2,2-difluoroethoxy)-5-fluoro-2-methoxy-3-pyridyl]-5,6,7,8-tetrahydroimidazo[1,2-a]pyridine-3-sulfonamide] | 0.217
COc1nc(OCC(F)F)c(F)cc1NS(=O)(=O)c1cnc2c(C#N)c(OC(F)F)ccn12 [Example 65, 8-cyano-N-[6-(2,2-difluoroethoxy)-5-fluoro-2-methoxy-3-pyridyl]-7-(difluoromethoxy)imidazo[1,2-a]pyridine-3-sulfonamide] | 0.27
Cc1ccn2c(S(=O)(=O)Nc3cc(F)c(OC(F)F)nc3OC(F)F)cnc2c1C#N [Example 66, N-[2,6-bis(difluoromethoxy)-5-fluoro-3-pyridyl]-8-cyano-7-methyl-imidazo[1,2-a]pyridine-3-sulfonamide] | 0.289
COc1nc(C2COC2)c(F)cc1NS(=O)(=O)c1cnc2cc(Cl)ccn12 [Example 70, 7-chloro-N-[5-fluoro-2-methoxy-6-(oxetan-3-yl)-3-pyridyl]imidazo[1,2-a]pyridine-3-sulfonamide] | 0.407
COc1nc(OCC(F)F)c(F)cc1NS(=O)(=O)c1cnc2c(C)cccn12 [Example 71, N-[6-(2,2-difluoroethoxy)-5-fluoro-2-methoxy-3-pyridyl]-8-methyl-imidazo[1,2-a]pyridine-3-sulfonamide] | 0.413
COc1nc(OCC(F)F)c(F)cc1NS(=O)(=O)c1cnc2n1CC(C)C2 (centres unmarked) [Example 72, N-[6-(2,2-difluoroethoxy)-5-fluoro-2-methoxy-3-pyridyl]-6-methyl-6,7-dihydro-5H-pyrrol[1,2-a]imidazole-3-sulfonamide] | 0.449
COc1nc(NS(=O)(=O)c2cnc3cc(Cl)ccn23)ncc1OCCF [Example 74, 7-chloro-N-[5-(2-fluoroethoxy)-4-methoxy-pyrimidin-2-yl]imidazo[1,2-a]pyridine-3-sulfonamide] | 0.897
COc1nc(OCC(F)F)c(F)cc1NS(=O)(=O)c1cnc2n1CCC2C (centres unmarked) [Example 75, N-[6-(2,2-difluoroethoxy)-5-fluoro-2-methoxy-3-pyridyl]-7-methyl-6,7-dihydro-5H-pyrrol[1,2-a]imidazole-3-sulfonamide] | 0.974
COc1nc(CC#N)c(F)cc1NS(=O)(=O)c1cnn2cc(Br)ccc12 [Example 77, 6-bromo-N-[6-(cyanomethyl)-5-fluoro-2-methoxy-3-pyridyl]pyrazolo[1,5-a]pyridine-3-sulfonamide] | 0.006
COc1nc(OCC(F)F)c(F)cc1NS(=O)(=O)c1cnn2cc(Br)ccc12 [Example 78, 6-bromo-N-[6-(2,2-difluoroethoxy)-5-fluoro-2-methoxy-3-pyridyl]pyrazolo[1,5-a]pyridine-3-sulfonamide] | 0.01
COc1nc(NS(=O)(=O)c2cnn3cc(Br)ccc23)c(F)cc1CC#N [Example 79, 6-bromo-N-[5-(cyanomethyl)-3-fluoro-6-methoxy-2-pyridyl]pyrazolo[1,5-a]pyridine-3-sulfonamide] | 0.02
COc1nc(NS(=O)(=O)c2cnn3cc(Br)ccc23)c(F)cc1OCCF [Example 80, 6-bromo-N-[3-fluoro-5-(2-fluoroethoxy)-6-methoxy-2-pyridyl]pyrazolo[1,5-a]pyridine-3-sulfonamide] | 0.026

More lines, now with the values ahead:

IC50 [µM] | SMILES
0.099 | COc1nc(OCC(F)F)c(F)cc1NS(=O)(=O)c1cnc2c(C#N)c(Cl)ccn12 [Example 52, 7-chloro-8-cyano-N-[6-(2,2-difluoroethoxy)-5-fluoro-2-methoxy-3-pyridyl]imidazo[1,2-a]pyridine-3-sulfonamide]
0.116 | COc1ccn2c(S(=O)(=O)Nc3cc(F)c(CC#N)cc3F)cnc2c1 [Example 55, N-[4-(cyanomethyl)-2,5-difluoro-phenyl]-7-methoxy-imidazo[1,2-a]pyridine-3-sulfonamide]
0.137 | COc1c(C)ccn2c(S(=O)(=O)Nc3cc(F)c(Br)cc3F)cnc12 [Example 57, N-(4-bromo-2,5-difluoro-phenyl)-8-methoxy-7-methyl-imidazo[1,2-a]pyridine-3-sulfonamide]
0.181 | COc1c(Cl)ccn2c(S(=O)(=O)Nc3cc(F)c(CC#N)cc3F)cnc12 [Example 61, 7-chloro-N-[4-(cyanomethyl)-2,5-difluoro-phenyl]-8-methoxy-imidazo[1,2-a]pyridine-3-sulfonamide]
0.251 | N#CCc1cc(F)c(NS(=O)(=O)c2cnc3cc(Cl)ccn23)cc1F [Example 64, 7-chloro-N-(4-(cyanomethyl)-2,5-difluorophenyl)imidazo[1,2-a]pyridine-3-sulfonamide]
0.301 | Cc1ccn2c(S(=O)(=O)Nc3cc(F)c(CC#N)cc3F)cnc2c1C#N [Example 67, 8-cyano-N-[4-(cyanomethyl)-2,5-difluoro-phenyl]-7-methyl-imidazo[1,2-a]pyridine-3-sulfonamide]
0.329 | N#CCc1cc(F)c(NS(=O)(=O)c2cnc3c(F)c(Cl)ccn23)cc1F [Example 68, 7-chloro-N-[4-(cyanomethyl)-2,5-difluoro-phenyl]-8-fluoro-imidazo[1,2-a]pyridine-3-sulfonamide]
0.393 | COc1nc(OCC(F)F)c(F)cc1NS(=O)(=O)c1cnc2c(C#N)cccn12 [Example 69, 8-cyano-N-[6-(2,2-difluoroethoxy)-5-fluoro-2-methoxy-3-pyridyl]imidazo[1,2-a]pyridine-3-sulfonamide]
0.876 | COc1ccn2c(S(=O)(=O)Nc3cc(F)c(CC#N)cc3F)cnc2n1 [Example 73, N-[4-(cyanomethyl)-2,5-difluoro-phenyl]-7-methoxy-imidazo[1,2-a]pyrimidine-3-sulfonamide]
1.03 | Cc1ccn2c(S(=O)(=O)Nc3cc(F)c(CC#N)cc3F)cnc2n1 [Example 76, N-[4-(cyanomethyl)-2,5-difluoro-phenyl]-7-methyl-imidazo[1,2-a]pyrimidine-3-sulfonamide]

Reference: US20260242372A1, “NOVEL IMIDAZOPYRIDINE AND PYRAZOLOPYRIDINE SULFONAMIDE DERIVATIVES” (Hoffmann-La Roche Inc., priority 2022, published 2026)
